The text below walks through data of patent US10196364B2, “Pyrimidine carboxamides as sodium channel blockers” (Purdue Pharma L.P., priority 2013, dated 2019).

pIC50: −log10 of the molar value.

The target of one assay is human Nav1.7 (Homo sapiens, UniProt Q15858). Put plainly: FLIPR sodium dye assay (CoroNa Green AM Na+ dye, primary fluorescence assay) in recombinant Nav1.7/HEK293 cells. The format is cell-based.
Sequence of human Nav1.7 (Q15858 1-1977 isoform Q15858-3): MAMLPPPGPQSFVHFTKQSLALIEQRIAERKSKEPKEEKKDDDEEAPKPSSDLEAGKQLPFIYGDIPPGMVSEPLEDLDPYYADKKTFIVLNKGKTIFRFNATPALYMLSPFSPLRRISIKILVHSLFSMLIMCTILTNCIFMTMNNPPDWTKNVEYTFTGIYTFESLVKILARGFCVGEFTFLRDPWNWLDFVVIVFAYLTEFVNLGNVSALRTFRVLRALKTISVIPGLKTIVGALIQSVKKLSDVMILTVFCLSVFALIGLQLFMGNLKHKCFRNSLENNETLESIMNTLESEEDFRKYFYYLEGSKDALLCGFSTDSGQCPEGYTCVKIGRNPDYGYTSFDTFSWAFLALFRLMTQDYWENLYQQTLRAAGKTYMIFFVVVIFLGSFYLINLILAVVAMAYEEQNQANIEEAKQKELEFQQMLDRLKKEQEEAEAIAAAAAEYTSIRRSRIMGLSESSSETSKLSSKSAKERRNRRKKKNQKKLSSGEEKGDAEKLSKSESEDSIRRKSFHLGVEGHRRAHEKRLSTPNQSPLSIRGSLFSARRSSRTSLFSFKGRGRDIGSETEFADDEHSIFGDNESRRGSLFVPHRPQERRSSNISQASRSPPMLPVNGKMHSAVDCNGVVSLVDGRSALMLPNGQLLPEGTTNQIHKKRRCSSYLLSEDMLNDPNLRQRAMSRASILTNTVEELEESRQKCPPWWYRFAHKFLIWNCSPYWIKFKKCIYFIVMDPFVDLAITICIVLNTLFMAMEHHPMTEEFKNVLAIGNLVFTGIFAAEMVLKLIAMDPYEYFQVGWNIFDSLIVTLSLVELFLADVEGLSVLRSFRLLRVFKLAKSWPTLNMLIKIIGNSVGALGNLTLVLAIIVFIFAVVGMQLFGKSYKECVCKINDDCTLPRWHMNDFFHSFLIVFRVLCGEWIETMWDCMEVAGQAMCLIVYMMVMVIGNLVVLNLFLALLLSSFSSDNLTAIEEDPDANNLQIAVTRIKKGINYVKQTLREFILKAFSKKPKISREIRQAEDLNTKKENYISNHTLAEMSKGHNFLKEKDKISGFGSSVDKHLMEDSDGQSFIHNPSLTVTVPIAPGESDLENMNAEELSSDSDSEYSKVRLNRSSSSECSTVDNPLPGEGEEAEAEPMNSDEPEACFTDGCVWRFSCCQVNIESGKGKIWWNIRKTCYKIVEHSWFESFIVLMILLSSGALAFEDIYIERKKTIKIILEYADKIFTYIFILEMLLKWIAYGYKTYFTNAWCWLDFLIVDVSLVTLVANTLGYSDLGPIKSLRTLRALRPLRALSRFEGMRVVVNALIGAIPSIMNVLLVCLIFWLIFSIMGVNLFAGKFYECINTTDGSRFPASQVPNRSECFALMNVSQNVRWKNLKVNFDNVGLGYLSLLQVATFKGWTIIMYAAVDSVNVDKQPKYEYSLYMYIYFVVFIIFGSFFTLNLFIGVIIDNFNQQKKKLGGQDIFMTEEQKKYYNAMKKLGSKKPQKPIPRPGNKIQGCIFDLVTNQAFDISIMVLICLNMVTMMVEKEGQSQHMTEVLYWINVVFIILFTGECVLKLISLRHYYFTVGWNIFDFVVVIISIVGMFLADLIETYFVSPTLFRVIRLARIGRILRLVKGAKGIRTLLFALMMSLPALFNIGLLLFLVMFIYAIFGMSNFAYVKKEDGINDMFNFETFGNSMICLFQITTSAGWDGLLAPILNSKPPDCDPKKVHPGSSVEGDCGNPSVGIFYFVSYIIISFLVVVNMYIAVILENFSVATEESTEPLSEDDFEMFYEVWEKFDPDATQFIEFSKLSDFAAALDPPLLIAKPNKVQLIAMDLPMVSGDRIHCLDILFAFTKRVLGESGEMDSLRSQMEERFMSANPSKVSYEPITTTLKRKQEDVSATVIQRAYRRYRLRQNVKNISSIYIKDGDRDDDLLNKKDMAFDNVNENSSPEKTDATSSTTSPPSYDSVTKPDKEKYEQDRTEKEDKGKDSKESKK
Settings: not given
Take `NC(=O)c1cc(N[C@@H]2CCNC2=O)nc(-c2ccc(Oc3ccc(C(F)(F)F)cn3)cc2)n1` [compound 149, (R)-6-((2-oxopyrrolidin-3-yl)amino)-2-(4-((5-(trifluoromethyl)pyridin-2-yl)oxy)phenyl)pyrimidine-4-carboxamide]: the pIC50 (as a rule, the IC50 on a negative log10 scale, so that one unit is a factor of ten) is 6.49.

The same assay, now with this note: Table 6; CoroNa Green AM Na+ dye primary fluorescence assay; read-out: Nav1.7 Activity (μM) FLIPR assay IC50.
Turning to `NC(=O)c1cc(N[C@H]2CCNC2=O)nc(-c2ccc(Oc3ccc4c(c3)OCO4)cc2)n1` [compound 115, (S)-2-(4-(benzo[d][1,3]dioxol-5-yloxy)phenyl)-6-((2-oxopyrrolidin-3-yl)amino)pyrimnidine-4-carboxamide], the IC50 (as a rule, the concentration at which inhibition is half-maximal) stood at 0.3 µM. On to `NC(=O)c1cc(N[C@H]2CCNC2=O)nc(-c2ccc(Oc3ccc(OCC(F)(F)F)nn3)cc2)n1` [compound 153, (S)-6-((2-oxopyrrolidin-3-yl)amino)-2-(4-((6-(2,2,2-trifluoroethoxy)pyridazin-3-yl)oxy)phenyl)pyrimidine-4-carboxamide], for which the IC50 came out at 1.13 µM. Still for that read-out and setting: with `NC(=O)c1cc(N[C@H]2CCNC2=O)nc(-c2ccc(C(O)c3ccc(C(F)(F)F)cn3)cc2)n1` (some centres unmarked) [Cpd No. 189] the figure was greater than 20 µM; with `C[C@H](Nc1cc(C(N)=O)nc(N2C3CCC2CC(Oc2ccc(F)cc2)C3)n1)C(N)=O` (stereo partly drawn) [compound 161, 6-(((S)-1-amino-1-oxopropan-2-yl)amino)-2-(3-(4-fluorophenoxy)-8-azabicyclo[3.2.1]octan-8-yl)pyrimidine-4-carboxamide], 3.24 µM. On to `NC(=O)c1cc(N[C@H]2CCNC2=O)nc(N2C3CCC2CC(Oc2ccc(F)cc2)C3)n1` (stereo partly drawn) [compound 159, 2-(3-(4-fluorophenoxy)-8-azabicyclo[3.2.1]octan-8-yl)-6-(((S)-2-oxopyrrolidin-3-yl)amino)pyrimidine-4-carboxamide], for which the IC50 turned out to be 1.29 µM.

With `NC(=O)c1cc(N[C@H]2CCNC2=O)nc(-c2ccc(C(=O)c3ccc(C(F)(F)F)cn3)cc2)n1` [compound 162, (S)-6-((2-oxopyrrolidin-3-yl)amino)-2-(4-(5-(trifluoromethyl)picolinoyl)phenyl)pyrimidine-4-carboxamide], the IC50 came out at 1.9 µM. For `NC(=O)c1cc(OCCN2CCNC2=O)nc(-c2ccc(Oc3ccc(C(F)(F)F)cc3)cc2)n1` [compound 127, 6-(2-(2-oxoimidazolidin-1-yl)ethoxy)-2-(4-(4-(trifluoromethyl)phenoxy)phenyl) pyrimnidine-4-carboxamide], the IC50 came to 0.26 µM. On the same count and under the same terms, with `CN1CCN(Cc2cc(Oc3ccc(C(F)(F)F)cc3)ccc2-c2nc(N[C@H]3CCNC3=O)cc(C(N)=O)n2)CC1` [Cpd No. 203, (S)-2-(2-((4-methylpiperazin-1-yl)methyl)-4-(4-(trifluoro-methyl)phenoxy)-phenyl)-6-((2-oxopyrrolidin-3-yl)amino)-pyrimidine-4-carboxamide] the figure was 0.76 µM. With `COc1ccc(CNc2cc(C(N)=O)nc(-c3ccc(Oc4ccc(F)cc4)cc3)n2)c(OC)c1` [Cpd No. 178, 6-((2,4-dimethoxybenzyl)amino)-2-(4-(4-fluorophenoxy)phenyl)-pyrimidine-4-carboxamide], the IC50 was 1.74 µM.

Regarding `C[C@H](Nc1cc(C(N)=O)nc(Oc2ccc(F)cc2)n1)C(N)=O` [compound 104, (S)-6-((1-amino-1-oxopropan-2-yl)amino)-2-(4-fluorophenoxy)pyrimidine-4-carboxamide], the half-maximal inhibitory concentration (IC50) was greater than 20 µM. On the same count and under the same terms, under `NC(=O)c1cc(O[C@H](C(N)=O)C(O)CO)nc(-c2ccc(Oc3ccc(C(F)(F)F)cc3)cc2)n1` (stereo partly drawn) [compound 124, 6-(((2S)-1-amino-3,4-dihydroxy-1-oxobutan-2-yl)oxy)-2-(4-(4-(trifluoromethyl)phenoxy)phenyl)pyrimidine-4-carboxamide] stands 0.7 µM; under `NC(=O)c1cc(N[C@H]2CCNC2=O)nc(-c2ccc(Oc3ccc(F)cc3)cc2CN2CCC2)n1` [compound 167, (S)-2-(2-(azetidin-1-ylmethyl)-4-(4-fluorophenoxy)phenyl)-6-((2-oxopyrrolidin-3-yl)amino)pyrimidine-4-carboxamide], greater than 20 µM; under `NC(=O)c1cc(N[C@H]2CCNC2=O)nc(C2=C[C@H]3CC[C@@H](C2)N3Cc2ccc(F)cc2)n1` [compound 138, 2-((1R,5S)-8-(4-fluorobenzyl)-8-azabicyclo[3.2.1]oct-2-en-3-yl)-6-(((S)-2-oxopyrrolidin-3-yl)amino)pyrimidine-4-carboxamide], greater than 20 µM.

For the compound `CN1CCN(c2cc(C(F)(F)F)ccc2Oc2ccc(-c3nc(N[C@H]4CCNC4=O)cc(C(N)=O)n3)cc2)CC1` [Cpd No. 211, (S)-2-(4-(2-(4-methylpiperazin-1-yl)-4-(trifluoromethyl)-phenoxy)phenyl)-6-((2-oxopyrrolidin-3-yl)amino)-pyrimidine-4-carboxamide], the IC50 turned out to be 4.16 µM. Same read-out and setting: with `CN1CCN(c2cc(Oc3ccc(-c4nc(N[C@H]5CCNC5=O)cc(C(N)=O)n4)cc3)ccc2C(F)(F)F)CC1` [Cpd No. 210, (S)-2-(4-(3-(4-methylpiperazin-1-yl)-4-(trifluoromethyl)phenoxy)phenyl)-6-((2-oxopyrrolidin-3-yl)amino)pyrimidine-4-carboxamide] the figure was 1.94 µM; with `NC(=O)c1cc(N[C@H]2CCNC2=O)nc(Nc2ccc(Oc3ccc(C(F)(F)F)cn3)cc2)n1` [compound 172, (S)-6-((2-oxopyrrolidin-3-yl)amino)-2-((4-((5-(trifluoromethyl)pyridin-2-yl)oxy)phenyl)amino)pyrimidine-4-carboxamide], 2.07 µM. The same measure, in the same setting: with `NC(=O)c1cc(OCCN2CCCC2=O)nc(-c2ccc(Oc3ccc(C(F)(F)F)cc3)cc2)n1` [compound 119, 6-(2-(2-oxopyrrolidin-1-yl)ethoxy)-2-(4-(4-(trifluoromethyl)phenoxy)phenyl)pyrimidine-4-carboxamide] the figure was 0.12 µM; with `C[C@H](Oc1cc(C(N)=O)nc(-c2ccc(Oc3ccc(C(F)(F)F)cc3CN3CCCC3)cc2)n1)C(=O)O` [Cpd No. 184, (S)-2-((6-carbamoyl-2-(4-(2-(pyrrolidin-1-ylmethyl)-4-(trifluoromethyl)phenoxy)-phenyl)pyrimidin-4-yl)oxy)propanoic acid], 9.72 µM. The same measure, in the same setting: with `NC(=O)c1cc(N[C@H]2CCNC2=O)nc(-c2ccc(Oc3ccc(C(F)(F)F)cc3CN3CCC3)cc2)n1` [compound 168, (S)-2-(4-(2-(azetidin-1-ylmethyl)-4-(trifluoromethyl)phenoxy)phenyl)-6-((2-oxopyrrolidin-3-yl)amino)pyrimidine-4-carboxamide] the figure was 1.73 µM; with `C[C@H](Oc1cc(C(N)=O)nc(-c2ccc(Oc3ccc4c(c3)CCC4)cc2)n1)C(N)=O` [compound 129, (S)-6-((1-amino-1-oxopropan-2-yl)oxy)-2-(4-((2,3-dihydro-1H-inden-5-yl)oxy)phenyl)pyrimidine-4-carboxamide], 0.26 µM; with `CN1CCC(Nc2cc(C(N)=O)nc(-c3ccc(Oc4ccc(F)cc4)cc3)n2)C1=O` (centres unmarked) [compound 131, 2-(4-(4-fluorophenoxy)phenyl)-6-((1-methyl-2-oxopyrrolidin-3-yl)amino)pyrimnidine-4-carboxamide], 0.22 µM. As for `CN1CCN(Cc2cc(C(F)(F)F)ccc2Oc2ccc(-c3nc(N[C@H]4CCNC4=O)cc(C(N)=O)n3)cc2)CC1` [Cpd No. 193], the IC50 is greater than 20 µM. Still for that read-out and setting: under `NC(=O)c1cc(N[C@H]2CCNC2=O)nc(-c2ccc(CC3CCC(C(F)(F)F)CN3)cc2)n1` (stereo partly drawn) [Cpd No. 185, 6-(((S)-2-oxopyrrolidin-3-yl)amino)-2-(4-((5-(trifluoromethyl)piperidin-2-yl)methyl)phenyl)pyrimidine-4-carboxamide] stands 8.69 µM; under `NC(=O)c1cc(N[C@H]2CCNC2=O)nc(N2C3CCC2CC(Oc2ccc(C(F)(F)F)cc2-c2cccnc2)C3)n1` (some centres unmarked) [compound 156], 1.77 µM; under `NC(=O)c1cc(N[C@H]2CCNC2=O)nc(N2C3CCC2CC(Oc2ccc(C(F)(F)F)cc2-c2ccncc2)C3)n1` (stereo partly drawn) [compound 154, 6-(((S)-2-oxopyrrolidin-3-yl)amino)-2-(3-(2-(pyridin-4-yl)-4-(trifluoromethyl)phenoxy)-8-azabicyclo[3.2.1]octan-8-yl)pyrimidine-4-carboxamide], 0.13 µM. Same read-out and setting: under `NC(=O)c1cc(O[C@H]2CCN(C[C@H](O)CO)C2=O)nc(-c2ccc(Oc3ccc(F)cc3)cc2)n1` [compound 123, 6-(((S)-1-((S)-2,3-dihydroxypropyl)-2-oxopyrrolidin-3-yl)oxy)-2-(4-(4-fluorophenoxy)phenyl)pyrimidine-4-carboxamide] stands 0.67 µM.

As for `CC(C)(CO)[C@H](Oc1cc(C(N)=O)nc(-c2ccc(Oc3ccc(C(F)(F)F)cc3)cc2)n1)C(N)=O` [compound 120, (S)-6-((1-amino-4-hydroxy-3,3-dimethyl-1-oxobutan-2-yl)oxy)-2-(4-(4-(trifluoromethyl)phenoxy)phenyl) pyrimidine-4-carboxamide], the IC50 is 0.76 µM.

As for `C[C@H](Nc1cc(C(N)=O)nc(-c2ccc(Oc3ccc(C(F)(F)F)cc3CN3CCCC3)cc2)n1)C(N)=O` [compound 170, (S)-6-((1-amino-1-oxopropan-2-yl)amino)-2-(4-(2-(pyrrolidin-1-ylmethyl)-4-(trifluoromethyl)phenoxy)phenyl) pyrimidine-4-carboxamide], the IC50 is 1.17 µM. Still for that read-out and setting: under `C=CCN1CC[C@H](Oc2cc(C(N)=O)nc(-c3ccc(Oc4ccc(F)cc4)cc3)n2)C1=O` [compound 122, (S)-6-((1-allyl-2-oxopyrrolidin-3-yl)oxy)-2-(4-(4-fluorophenoxy)phenyl)pyrimidine-4-carboxamide] stands 0.8 µM; under `NC(=O)c1cc(N[C@H]2CCNC2=O)nc(-c2ccc(Oc3ncc(OCC(F)(F)F)cn3)cc2)n1` [compound 148, (S)-6-((2-oxopyrrolidin-3-yl)amino)-2-(4-((5-(2,2,2-trifluoroethoxy)pyrimidin-2-yl)oxy)phenyl)pyrimidine-4-carboxamide], greater than 20 µM; under `NC(=O)c1cc(O[C@H]2CCNC2=O)nc(C2CCC(Oc3ccc(C(F)(F)F)cn3)CC2)n1` (some centres unmarked) [Cpd No. 213], 0.69 µM.
